Patent publication US20040044075A1, “Alpha acyloxyacetamides for kallikrein and urokinase inhibition” (Genzyme Corporation, priority 2002, published 2004)

How the values were obtained:
Urokinase = Urokinase (Homo sapiens, UniProt P00749); assay: Urokinase assay (fluorometric, Cbz-Gly-Gly-Arg-AMC substrate); format: biochemical; details: 24° C, HEPES pH 7.5, 5% DMSO, fluorescence after ten minutes; read-out: IC50 (μM), urokinase inhibition
Procedure: (§1) Urokinase activity was assayed fluorometrically with an aminomethyl coumarin-containing (AMC-containing) substrate according to procedures described in Zimmerman et al, Proc. Natl. Acad. Sci. USA 75:750 (1978), the entire teachings of which are incorporated herein by reference. Specifically, enzyme assays with varying concentrations of the fluorogenic substrate Cbz-Gly-Gly-Arg-AMC were conducted at 24° C. in 0.05 M 4-(2-hydroxyethyl)-piperazineethanesulfonic acid (HEPES) buffer, pH 7.5/5% (vol/vol) dimethyl sulfoxide; the final volume was 0.1 ml in each assay.
Fluorescence was read after ten minutes at 360 nm (activation wavelength) and 460 nm (emission wavelength).

Kallikrein = Kallikrein (Homo sapiens, UniProt P03952); assay: Kallikrein inhibition assay (fluorometric, H-Pro-Phe-Arg-AMC substrate); format: biochemical; details: 24° C, HEPES pH 7.5, 5% DMSO, fluorescence after ten minutes
Procedure: as §1, with “Kallikrein” for “Urokinase”, “al.,” for “al,”, “H-Pro-Phe-Arg-AMC” for “Cbz-Gly-Gly-Arg-AMC”, “C” for “C.”, “sulfoxide. The” for “sulfoxide; the”, “assay. Fluorescence was read after ten minutes at 360 nm (activation wavelength) and 460 nm (emission wavelength).” for “assay.”

male rats = assay: Rat model of inflammatory bowel disease (DNBS-induced distal colitis); format: in vivo; details: 500 mg/kg PO × 7, with DNBS; rats
Procedure: Compounds were tested according to procedures described in C M Hogaboam et al., Eur. J. Pharmacol. 309:261 (1996), the entire teachings of which are incorporated herein by reference. Groups of 3 overnight fasted male rats weighing 150±10 grams were used. Distal colitis was induced by intra-colonic instillation of 0.5 ml/rat of DNBS (2,4-dinitrobenzene sulfonic acid, 60 mg/ml in ethanol 30%) after which air (2 ml) was gently injected through the cannula to ensure that the solution remained in the colon. Test compound was administered orally 24 and 2 hours before DNBS instillation and then daily for 5 days in total of 7 doses. The animals were sacrificed 24 hours after the final dose of test compound administration and each colon was removed and weighed. A 30 percent or more (≧30%) inhibition in net increase of colon to 100 grams body weight ratio, relative to vehicle-control-2 group is considered significant.

[1] = tested on: ICR derived male or female mice; assay: Acetic acid writhing assay; format: in vivo; details: one hour before acetic acid
Procedure: The analgesic activity of a number of compounds of the present invention were tested in an acetic acid writhing assay disclosed in Inoue et al., Arzneimittel Forschung Drug Research 41:228 (1991), the entire teachings of which are incorporated herein by reference. The test substance was administered intraperitoneally (500, 100 and 20 mg/kg) to groups of 3 ICR derived male or female mice weighing 22±2 g one hour before the injection of acetic acid (3%, 10 ml/kg, IP). Reduction in the number of writhes by 50% or more per group of animals observed during the 5-10 minutes period after acetic acid administration, relative to a vehicle-treated control group (challenge with acetic acid), indicates analgesic activity.

Kallikrein, sequence (P03952 whole entry): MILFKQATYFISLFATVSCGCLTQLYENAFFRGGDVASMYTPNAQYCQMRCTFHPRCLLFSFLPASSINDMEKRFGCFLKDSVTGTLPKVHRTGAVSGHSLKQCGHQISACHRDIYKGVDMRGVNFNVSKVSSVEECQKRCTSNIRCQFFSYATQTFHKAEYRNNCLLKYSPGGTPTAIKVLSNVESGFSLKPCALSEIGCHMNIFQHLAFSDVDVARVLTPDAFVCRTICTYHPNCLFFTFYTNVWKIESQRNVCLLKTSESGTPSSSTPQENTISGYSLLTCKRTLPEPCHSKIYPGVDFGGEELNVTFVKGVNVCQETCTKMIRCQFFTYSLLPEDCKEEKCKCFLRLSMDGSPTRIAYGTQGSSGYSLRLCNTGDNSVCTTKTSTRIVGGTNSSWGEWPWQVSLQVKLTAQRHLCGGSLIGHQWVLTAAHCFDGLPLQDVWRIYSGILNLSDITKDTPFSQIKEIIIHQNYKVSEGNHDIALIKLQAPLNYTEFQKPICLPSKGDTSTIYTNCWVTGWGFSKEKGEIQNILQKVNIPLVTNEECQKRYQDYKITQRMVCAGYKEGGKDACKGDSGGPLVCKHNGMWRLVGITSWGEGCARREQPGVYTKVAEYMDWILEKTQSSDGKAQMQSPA

Row | Compound | IC50 (Urokinase) [µM] | IC50 (Kallikrein) [µM] | other results
1 | CCOC(=O)CCNC(=O)C(OC(=O)Cc1ccc(OC)cc1)c1ccc(C#N)cc1 (stereo not drawn) [Compound (53)] | 1.06 |  | 
2 | O=C(CCOc1ccccc1)OC(C(=O)Nc1ccc2ncccc2c1)c1ccc(Br)cc1 (stereo not drawn) [Compound (32)] |  | 1.34 | 
3 | COc1ccc(NC(=O)C(OC(=O)CCOc2ccccc2)c2ccc(Br)cc2)cc1 (stereo not drawn) [Compound (30)] |  | 0.714 | 
4 | N#Cc1ccc(C(OC(=O)Cc2c[nH]c3ccccc23)C(=O)NC2CC2)cc1 (stereo not drawn) [Compound (4)] | 0.086 |  | 
5 | COc1ccc(OC)c(C(=O)CCC(=O)OC(C(=O)NCc2cc(OC)c(OC)c(OC)c2)c2ccccc2)c1 (stereo not drawn) [Compound (37)] |  | 1.67 | 
6 | O=C(O)c1cc(/N=N/c2ccc(S(=O)(=O)Nc3ccccn3)cc2)ccc1O [Sulfasalazine, reference compound] |  |  | Ave. (average final weight of the colon in grams) (male rats): 0.865 grams; Inhibition (percent inhibition in net increase of colon weight relative to control Group 2) (male rats): 32%; Net Inc. (net increase in weight of the colon relative to control Group 1) (male rats): 0.378 grams
7 | COc1cc(CNC(=O)C(OC(=O)Cc2c[nH]c3ccc(Br)cc23)c2ccc(Br)cc2)cc(OC)c1OC (stereo not drawn) [Compound (39)] |  | 2.68 | 
8 | COc1ccc(CC(=O)OC(C(=O)Nc2ccc(OC)c(OC)c2)c2ccc(Br)cc2)cc1 (stereo not drawn) [Compound (28)] |  | 0.68 | 
9 | COc1ccc(OC)c(C(=O)CCC(=O)OC(C(=O)NC2CC2)c2ccc(Br)cc2)c1 (stereo not drawn) [Compound (1)] |  | 0.174 | 
10 | N#Cc1ccc(C(OC(=O)CCC2CCCC2)C(=O)NC2CC2)cc1 (stereo not drawn) [Compound (55)] | 0.151 |  | 
11 | COc1ccc(CCNC(=O)C(OC(=O)CSc2ncccn2)c2ccc(C#N)cc2)cc1 (stereo not drawn) [Compound (8)] | 0.112 |  | 
12 | COc1cc(CNC(=O)C(OC(=O)CCOc2ccccc2)c2cccc(C#N)c2)cc(OC)c1OC (stereo not drawn) [Compound (40)] | 6.09 |  | 
13 | COc1ccc(OC)c(C(=O)CCC(=O)OC(C(=O)Nc2ccc(OC)c(OC)c2)c2cccc(C#N)c2)c1 (stereo not drawn) [Compound (16)] |  | 0.253 | 
14 | COc1cc(CNC(=O)C(OC(=O)c2csc3cc4c(cc23)OC(C)(C)O4)c2ccc(Br)cc2)cc(OC)c1OC (stereo not drawn) [Compound (36)] |  | 3.67 | 
15 | COc1ccc(CC(=O)OC(C(=O)NCc2cc(OC)c(OC)c(OC)c2)c2ccc(C#N)cc2)cc1 (stereo not drawn) [Compound (42)] | 1.97 |  | 
16 | COc1ccc(CC(=O)OC(C(=O)Nc2ccc(OC)c(OC)c2)c2ccc(C#N)cc2)cc1 (stereo not drawn) [Compound (22)] |  | 0.428 | 
17 | COc1ccc(CCNC(=O)C(OC(=O)CSc2ncccn2)c2ccc(Br)cc2)cc1 (stereo not drawn) [Compound (45)] | 1.41 |  | 
18 | NC(=O)c1ccc(NC(=O)C(OC(=O)CCOc2ccccc2)c2ccc(Br)cc2)cc1 (stereo not drawn) [Compound (33)] |  | 0.459 | 
19 | COc1ccc(CCNC(=O)C(OC(=O)CSc2ncccn2)c2ccc(C#N)cc2)cc1 (stereo not drawn) [Compound (31)] |  | 0.543 | 
20 | COc1ccc(CCNC(=O)C(OC(=O)CSc2ncccn2)c2ccc(OC)cc2)cc1 (stereo not drawn) [Compound (47)] | 2.38 |  | 
21 | COc1cc(CNC(=O)C(OC(=O)CCC(=O)c2ccccc2)c2ccc(S(C)(=O)=O)cc2)cc(OC)c1OC (stereo not drawn) [Compound (14)] |  | 1.18 | 
22 | COc1ccc(NC(=O)C(OC(=O)CSc2ncccn2)c2ccc(Br)cc2)cc1OC (stereo not drawn) [Compound (29)] |  | 0.31 | % Reduction of Writhes ([1]; 20 mg/kg IP): 17%; % Reduction of Writhes ([1]; 100 mg/kg IP): 33%; % Reduction of Writhes ([1]; 500 mg/kg IP): 83%
23 | N#Cc1ccc(C(OC(=O)CSc2ncccn2)C(=O)NC2CC2)cc1 (stereo not drawn) [Compound (6)] | 0.032 |  | 
24 | COc1ccc(CC(=O)OC(C(=O)NC2CC2)c2ccc(C#N)cc2)cc1 (stereo not drawn) [Compound (7)] | 0.11 |  | 
25 | COc1ccc(CCNC(=O)C(OC(=O)CSc2ncccn2)c2ccc3ccccc3c2)cc1 (stereo not drawn) [Compound (46)] | 2.93 |  | 
26 | COc1ccc(CC(=O)OC(C(=O)Nc2ccc(OC)c(OC)c2)c2ccc(C#N)cc2)cc1 (stereo not drawn) [Compound (41)] | 2.32 |  | 
27 | COc1ccc(OC)c(C(=O)CCC(=O)OC(C(=O)NCc2cc(OC)c(OC)c(OC)c2)c2ccc(C(F)(F)F)cc2)c1 (stereo not drawn) [Compound (34)] |  | 0.731 | 
28 | CCSCCNC(=O)C(OC(=O)Cc1ccc(OC)cc1)c1ccc(C#N)cc1 (stereo not drawn) [Compound (52)] | 0.628 |  | 

Row | Compound | IC50 (Urokinase) [µM] | IC50 (Kallikrein) [µM] | other results
29 | COc1ccc(C(OC(=O)CSc2ncccn2)C(=O)NCc2ccc3c(c2)OCO3)cc1 (stereo not drawn) [Compound (49)] | 1.37 |  | 
30 | COc1cc(CNC(=O)C(OC(=O)CCC2CCCCC2)c2cccc(C#N)c2)cc(OC)c1OC (stereo not drawn) [Compound (44)] | 1.78 |  | 
31 | COc1cc(CNC(=O)C(OC(=O)CSc2ncccn2)c2cccc(C#N)c2)cc(OC)c1OC (stereo not drawn) [Compound (20)] |  | 1.48 | 
32 | N#Cc1ccc(C(OC(=O)Cc2c[nH]c3ccccc23)C(=O)NC2CC2)cc1 (stereo not drawn) [Compound (38)] |  | 3.77 | 
33 | COc1ccc(CC(=O)OC(C(=O)NC2CC2)c2ccccc2)cc1 (stereo not drawn) [Compound (54)] | 0.814 |  | 
34 | COc1cc(CNC(=O)C(OC(=O)CCC(=O)c2ccccc2)c2ccc(SC)cc2)cc(OC)c1OC (stereo not drawn) [Compound (13)] |  | 0.874 | 
35 | COc1cc(CNC(=O)C(OC(=O)CCOc2ccccc2)c2cccc(C#N)c2)cc(OC)c1OC (stereo not drawn) [Compound (15)] |  | 0.577 | 
36 | COc1ccc(CCNC(=O)C(OC(=O)Cc2ccc(OC)cc2)c2ccc(C#N)cc2)cc1 (stereo not drawn) [Compound (51)] | 1.22 |  | 
37 | N#Cc1ccc(C(OC(=O)Cc2c[nH]c3ccc(Br)cc23)C(=O)NC2CC2)cc1 (stereo not drawn) [Compound (2)] |  | 0.167 | 
38 | COc1ccc(CC(=O)OC(C(=O)NCc2cc(OC)c(OC)c(OC)c2)c2ccc(C#N)cc2)cc1 (stereo not drawn) [Compound (23)] |  | 0.576 | 
39 | COc1cc(CNC(=O)C(OC(=O)CSc2ncccn2)c2cccc(C#N)c2)cc(OC)c1OC (stereo not drawn) [Compound (9)] | 0.923 |  | 
40 | COc1ccc(CC(=O)OC(C(=O)NC2CC2)c2ccc(C#N)cc2)cc1 (stereo not drawn) [Compound (35)] |  | 0.391 | 
41 | N#Cc1ccc(C(OC(=O)CCC2CCCCC2)C(=O)NC2CC2)cc1 (stereo not drawn) [Compound (56)] | 0.055 |  | 
42 | COc1ccc(CC(=O)OC(C(=O)NCc2ccc3c(c2)OCO3)c2ccc(C#N)cc2)cc1 (stereo not drawn) [Compound (10)] | 0.783 |  | 
43 | COc1cccc(OCCC(=O)OC(C(=O)NCc2cc(OC)c(OC)c(OC)c2)c2cccc(C#N)c2)c1 (stereo not drawn) [Compound (19)] |  | 1.69 | 
44 | N#Cc1ccc(C(OC(=O)CCC2CCCCC2)C(=O)NC2CC2)cc1 (stereo not drawn) [Compound (3)] |  | 1.06 | 
45 | COc1cc(CNC(=O)C(OC(=O)CCC(=O)c2ccccc2)c2ccccc2)cc(OC)c1OC (stereo not drawn) [Compound (12)] |  | 0.737 | 
46 | COc1cc(CNC(=O)C(OC(=O)CCCc2ccccc2)c2cccc(C#N)c2)cc(OC)c1OC (stereo not drawn) [Compound (21)] |  | 1.18 | 
47 | COc1ccc(OC)c(C(=O)CCC(=O)OC(C(=O)Nc2ccc(OC)c(OC)c2)c2ccc(Br)cc2)c1 (stereo not drawn) [Compound (25)] |  | 0.275 | 
48 | COC(=O)c1ccc(C(OC(=O)CCC(=O)c2ccccc2)C(=O)NCc2cc(OC)c(OC)c(OC)c2)cc1 (stereo not drawn) [Compound (11)] |  | 0.442 | 
49 | COc1ccc(NC(=O)C(OC(=O)CSc2ncccn2)c2ccc(Br)cc2)cc1OC (stereo not drawn) [Compound (43)] | 3.39 |  | 
50 | COc1cc(CNC(=O)C(OC(=O)CSc2nccc(C)n2)c2cccc(C#N)c2)cc(OC)c1OC (stereo not drawn) [Compound (17)] |  | 0.384 | 
51 | COc1ccc(OC)c(C(=O)CCC(=O)OC(C(=O)NCc2cc(OC)c(OC)c(OC)c2)c2ccc3ccccc3c2)c1 (stereo not drawn) [Compound (24)] |  | 0.247 | % Reduction of Writhes ([1]; 20 mg/kg IP): 0%; % Reduction of Writhes ([1]; 100 mg/kg IP): 25%; % Reduction of Writhes ([1]; 500 mg/kg IP): 83%
52 | O=C(CSc1ncccn1)OC(C(=O)NCc1ccc2c(c1)OCO2)c1ccc(C(F)(F)F)cc1 (stereo not drawn) [Compound (50)] | 3.1 |  | 
53 | COc1ccc(CCNC(=O)C(OC(=O)CSc2ncccn2)c2ccc(C(F)(F)F)cc2)cc1 (stereo not drawn) [Compound (48)] | 5.38 |  | 
54 | COc1cc(CNC(=O)C(OC(=O)CSc2nc(C)cc(C)n2)c2cccc(C#N)c2)cc(OC)c1OC (stereo not drawn) [Compound (18)] |  | 6.47 | 
55 | N#Cc1ccc(C(OC(=O)Cc2c[nH]c3ccc(Br)cc23)C(=O)NC2CC2)cc1 (stereo not drawn) [Compound (5)] | 0.029 |  | 
